Where “and” joins values, the source holds several entries; their conditions need not be identical. Identical values can stand only once.
Assays:
[1] = biological target: α7–GlyR mutant chimeric channels (Homo sapiens, UniProt P36544, L131A); assay: Membrane potential assay screen, mutant α7–GlyR chimeric channels; assay type: cell-based; conditions: EC50 at α7GlyR L131A, sheet 1d
[2] = biological target: α7–GlyR mutant chimeric channels (Homo sapiens, UniProt P36544, L131F); assay: as above; assay type: cell-based; conditions: EC50 at α7GlyR L131F, sheet 1d
α7–GlyR mutant chimeric channels (Homo sapiens, UniProt P36544, L131F), sequence (P36544 23-228 L131F): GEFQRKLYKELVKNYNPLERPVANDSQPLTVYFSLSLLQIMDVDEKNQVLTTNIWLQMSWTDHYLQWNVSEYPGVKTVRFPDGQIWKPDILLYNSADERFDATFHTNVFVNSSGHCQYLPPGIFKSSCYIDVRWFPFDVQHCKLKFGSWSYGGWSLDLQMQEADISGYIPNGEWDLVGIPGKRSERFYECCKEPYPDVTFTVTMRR
α7–GlyR mutant chimeric channels (Homo sapiens, UniProt P36544, L131F), sequence (P23415 248-457 partner): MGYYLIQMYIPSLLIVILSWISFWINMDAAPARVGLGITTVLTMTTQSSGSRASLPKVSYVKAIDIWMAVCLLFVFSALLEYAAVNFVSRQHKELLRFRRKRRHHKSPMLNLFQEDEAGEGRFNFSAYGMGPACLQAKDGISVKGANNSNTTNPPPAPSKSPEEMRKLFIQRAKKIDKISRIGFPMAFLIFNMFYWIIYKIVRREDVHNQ

[3] = biological target: α7–GlyR mutant chimeric channels (Homo sapiens, UniProt P36544, L131G); assay: as above; assay type: cell-based; conditions: EC50 at α7GlyR L131G, sheet 1d
α7–GlyR mutant chimeric channels (Homo sapiens, UniProt P36544, L131G), sequence (P36544 23-229 L131G): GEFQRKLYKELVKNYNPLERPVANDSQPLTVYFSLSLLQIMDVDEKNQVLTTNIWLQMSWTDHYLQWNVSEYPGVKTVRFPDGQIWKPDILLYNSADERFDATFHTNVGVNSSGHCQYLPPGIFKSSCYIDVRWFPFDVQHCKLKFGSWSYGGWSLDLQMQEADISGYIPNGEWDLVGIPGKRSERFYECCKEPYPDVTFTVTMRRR
α7–GlyR mutant chimeric channels (Homo sapiens, UniProt P36544, L131G), sequence (P23415 248-457 partner): as the sequence (P23415 248-457 partner) above

[4] = biological target: α7–GlyR mutant chimeric channels (Homo sapiens, UniProt P36544, L131K); assay: as above; assay type: cell-based; conditions: EC50 at α7 GlyR L131K, sheet 1d
α7–GlyR mutant chimeric channels (Homo sapiens, UniProt P36544, L131K), sequence (P36544 23-229 L131K): as the sequence (P36544 23-229 L131G) above, with G109K counted along it
α7–GlyR mutant chimeric channels (Homo sapiens, UniProt P36544, L131K), sequence (P23415 248-457 partner): as the sequence (P23415 248-457 partner) above

[5] = biological target: α7–GlyR mutant chimeric channels (Homo sapiens, UniProt P36544, L141F); assay: as above; assay type: cell-based; conditions: EC50 at α7 GlyR L141F, sheet 1d
α7–GlyR mutant chimeric channels (Homo sapiens, UniProt P36544, L141F), sequence (P36544 23-230 L141F): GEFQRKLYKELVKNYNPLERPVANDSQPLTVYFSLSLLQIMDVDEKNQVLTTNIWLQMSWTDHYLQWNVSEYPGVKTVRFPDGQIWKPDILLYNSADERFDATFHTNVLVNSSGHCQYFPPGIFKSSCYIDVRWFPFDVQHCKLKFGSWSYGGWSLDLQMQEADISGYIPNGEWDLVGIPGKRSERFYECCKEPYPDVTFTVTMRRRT
α7–GlyR mutant chimeric channels (Homo sapiens, UniProt P36544, L141F), sequence (P23415 247-457 partner): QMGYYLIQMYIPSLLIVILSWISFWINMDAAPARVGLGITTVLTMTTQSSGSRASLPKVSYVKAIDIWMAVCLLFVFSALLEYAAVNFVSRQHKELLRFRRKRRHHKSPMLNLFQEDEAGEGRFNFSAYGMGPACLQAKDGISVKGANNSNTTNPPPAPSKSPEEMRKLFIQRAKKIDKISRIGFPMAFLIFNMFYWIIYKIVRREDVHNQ

[6] = biological target: α7–GlyR mutant chimeric channels (Homo sapiens, UniProt P36544, P216A); assay: as above; assay type: cell-based; conditions: EC50 at α7 GlyR P216A, sheet 1d
α7–GlyR mutant chimeric channels (Homo sapiens, UniProt P36544, P216A), sequence (P36544 23-230 P216A): as the sequence (P36544 23-230 L141F) above, with F119L, P194A counted along it
α7–GlyR mutant chimeric channels (Homo sapiens, UniProt P36544, P216A), sequence (P23415 247-457 partner): as the sequence (P23415 247-457 partner) above

[7] = biological target: α7–GlyR mutant chimeric channels (Homo sapiens, UniProt P36544, P216I); assay: as above; assay type: cell-based; conditions: EC50 at α7 GlyR P216I, sheet 1d
α7–GlyR mutant chimeric channels (Homo sapiens, UniProt P36544, P216I), sequence (P36544 23-230 P216I): as the sequence (P36544 23-230 L141F) above, with F119L, P194I counted along it
α7–GlyR mutant chimeric channels (Homo sapiens, UniProt P36544, P216I), sequence (P23415 248-457 partner): as the sequence (P23415 248-457 partner) above

[8] = biological target: α7–GlyR mutant chimeric channels (Homo sapiens, UniProt P36544, P216M); assay: as above; assay type: cell-based; conditions: EC50 at α7 GlyR P216M, sheet 1d
α7–GlyR mutant chimeric channels (Homo sapiens, UniProt P36544, P216M), sequence (P36544 23-230 P216M): as the sequence (P36544 23-230 L141F) above, with F119L, P194M counted along it
α7–GlyR mutant chimeric channels (Homo sapiens, UniProt P36544, P216M), sequence (P23415 248-457 partner): as the sequence (P23415 248-457 partner) above

[9] = biological target: α7–GlyR mutant chimeric channels (Homo sapiens, UniProt P36544, Q139G); assay: as above; assay type: cell-based; conditions: EC50 at α7 GlyR Q139G, sheet 1d
α7–GlyR mutant chimeric channels (Homo sapiens, UniProt P36544, Q139G), sequence (P36544 23-230 Q139G): as the sequence (P36544 23-230 L141F) above, with Q117G, F119L counted along it
α7–GlyR mutant chimeric channels (Homo sapiens, UniProt P36544, Q139G), sequence (P23415 248-457 partner): as the sequence (P23415 248-457 partner) above

[10] = biological target: α7–GlyR mutant chimeric channels (Homo sapiens, UniProt P36544, W77F); assay: as above; assay type: cell-based; conditions: EC50 at a7 GlyR W77F, sheet 1d
α7–GlyR mutant chimeric channels (Homo sapiens, UniProt P36544, W77F), sequence (P36544 23-230 W77F): as the sequence (P36544 23-230 L141F) above, with W55F, F119L counted along it
α7–GlyR mutant chimeric channels (Homo sapiens, UniProt P36544, W77F), sequence (P23415 248-457 partner): as the sequence (P23415 248-457 partner) above

coca-GlyR = biological target: T1, coca-GlyR (Homo sapiens, UniProt P23415+P36544, G175K/L141G/Y217F); assay: Whole-cell voltage-clamp in HEK293 cells, coca-GlyR; assay type: cell-based; conditions: transfected HEK293
T1 construct: expressed in transfected cells; host or cells: HEK293 (ATCC CRL-1573), pcDNA3.1
T1 sequence (P36544+P23415 fused P36544:L141G/P36544:G175K/P36544:Y217F): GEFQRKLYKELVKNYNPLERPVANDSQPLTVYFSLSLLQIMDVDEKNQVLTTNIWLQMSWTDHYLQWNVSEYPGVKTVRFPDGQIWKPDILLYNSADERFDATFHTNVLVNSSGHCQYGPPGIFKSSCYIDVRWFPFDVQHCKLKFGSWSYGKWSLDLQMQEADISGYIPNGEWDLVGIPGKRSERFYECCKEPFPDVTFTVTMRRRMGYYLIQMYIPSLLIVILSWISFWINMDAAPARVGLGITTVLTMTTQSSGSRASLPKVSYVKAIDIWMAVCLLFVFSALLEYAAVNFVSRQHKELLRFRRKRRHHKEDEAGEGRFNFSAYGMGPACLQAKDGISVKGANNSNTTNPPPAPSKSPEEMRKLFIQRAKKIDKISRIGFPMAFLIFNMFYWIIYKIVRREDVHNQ
Procedure: Channel mutants and agonists were further characterized in whole-cell voltage-clamp experiments performed on HEK293 cells. At passage 44–48, cells were plated at low density (1 × 10^3 per cm^2) on poly-D-lysine-coated glass coverslips, then transfected in 10 cm^2 wells using the Fugene 6 transfection reagent (Roche) with DNA plasmids containing both an ion channel cDNA (pcDNA3.1, 2 µg per well) and cDNA for GFP (pCMV, 0.1 μg per well), followed by replacement of the medium after 3 h. Recordings were made 24–72 h after transfection.
Electrophysiological recordings were performed in whole-cell voltage-clamp mode, on an inverted fluorescence microscope (Olympus IX-51) using pClamp software and a […] amplifier (Molecular Devices). Electrophysiological data was filtered at 4 kHz, digitized at 10 kHz using a Digidata 1400 interface (Molecular Devices), recorded on a PC (Dell) and analysed using custom MATLAB software (MathWorks). Solutions were delivered from a gravity fed perfusion system through a capillary tube placed approximately […] from the recorded cell using an eight-way manifold pinch valve system (Nanion), which was controlled from the acquisition software. This allowed for up to seven concentrations of agonist to be tested. […]

[11] = test system: hippocampal neurons expressing GFP; assay: Current-clamp of control cultured hippocampal neurons expressing GFP; assay type: cell-based, rat; conditions: for DmV MEAN: IRES-EGFP control, MEAN of cells
control rats = assay: Cocaine IVSA (intravenous self-administration), control rats; assay type: in vivo, rat
[12] = biological target: coca-5HT3 (α7(L141G,G175K,Y210F,Y217F)–5HT3) (Homo sapiens, UniProt P36544, G175K/L141G/Y210F/Y217F); assay: Membrane potential assay, coca-5HT3 in HEK293; conditions: for Response / Max normalized Response: coca-5HT3; for Max normalized Response: ED Fig 3b
coca-5HT3 (α7(L141G,G175K,Y210F,Y217F)–5HT3), sequence (P36544 23-224 L141G/G175K/Y210F/Y217F): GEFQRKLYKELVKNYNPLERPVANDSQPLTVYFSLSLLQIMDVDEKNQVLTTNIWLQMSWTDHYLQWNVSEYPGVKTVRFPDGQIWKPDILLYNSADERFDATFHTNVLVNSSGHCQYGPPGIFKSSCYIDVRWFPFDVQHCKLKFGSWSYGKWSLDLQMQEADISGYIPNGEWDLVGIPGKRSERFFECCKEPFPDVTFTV
coca-5HT3 (α7(L141G,G175K,Y210F,Y217F)–5HT3), sequence (P23979 242-489, further chain): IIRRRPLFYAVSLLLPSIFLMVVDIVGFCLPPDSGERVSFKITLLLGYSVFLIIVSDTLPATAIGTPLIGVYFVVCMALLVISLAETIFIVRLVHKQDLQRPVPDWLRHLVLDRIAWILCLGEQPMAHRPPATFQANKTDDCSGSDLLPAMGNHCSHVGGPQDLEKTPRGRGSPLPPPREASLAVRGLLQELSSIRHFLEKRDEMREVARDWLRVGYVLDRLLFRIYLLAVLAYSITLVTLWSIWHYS

α7–GlyR mutant chimeric channels (Homo sapiens, UniProt P36544, L131A), sequence (P36544 23-228 L131A): as the sequence (P36544 23-228 L131F) above, with F109A counted along it
α7–GlyR mutant chimeric channels (Homo sapiens, UniProt P36544, L131A), sequence (P23415 248-457 partner): as the sequence (P23415 248-457 partner) above

COC(=O)[C@H]1[C@@H](OC(=O)c2ccccc2)C[C@@H]2CC[C@H]1N2C [cocaine]
EC50 ([1]; Avg): > 30 µM
EC50 ([1]; single determinations): > 30 µM
EC50 ([2]; Avg): > 30 µM
EC50 ([2]; single determinations): > 30 µM
EC50 ([3]; Avg): > 30 µM
EC50 ([3]; single determinations): > 30 µM
EC50 ([4]; Avg): > 30 µM
EC50 ([4]; single determinations): > 30 µM
EC50 ([5]; Avg): > 30 µM
EC50 ([5]; single determinations): > 30 µM
EC50 ([6]; Avg): > 30 µM
EC50 ([6]; single determinations): > 30 µM
EC50 ([7]; Avg): > 30 µM
EC50 ([7]; single determinations): > 30 µM
EC50 ([8]; Avg): > 30 µM
EC50 ([8]; single determinations): > 30 µM
EC50 ([9]; Avg): > 30 µM
EC50 ([9]; single determinations): > 30 µM
EC50 ([10]; Avg): 3.4 µM
EC50 ([10]; single determinations): 3.4 µM
currents from coca-GlyR (coca-GlyR): large, sustained currents
depolarization of control neurons ([11]; GFP control neurons): did not affect control neurons
DmV MEAN ([11]; cocaine 0.1 uM): -0.03 mV
DmV MEAN ([11]; cocaine 0.3 uM): -0.2411 mV
DmV MEAN ([11]; cocaine 1 uM): 0.04889 mV
DmV MEAN ([11]; cocaine 3 uM): 0.31 mV
DmV MEAN ([11]; cocaine 10 uM): -0.01556 mV
DmV MEAN ([11]; cocaine 30 uM): -0.4375 mV
Sheet 3g, Mean (per-rat counts at each dose) (control rats; Dose 0.0625): 37.2
Sheet 3h, Mean (sheet 3g count x dose, intake) (control rats; Dose 0.0625): 2.325
Sheet 3g, Mean (per-rat counts at each dose) (control rats; Dose 0.125): 69.7333
Sheet 3h, Mean (sheet 3g count x dose, intake) (control rats; Dose 0.125): 8.717
Sheet 3g, Mean (per-rat counts at each dose) (control rats; Dose 0.25): 50.5385
Sheet 3h, Mean (sheet 3g count x dose, intake) (control rats; Dose 0.25): 12.6346
Sheet 3g, Mean (per-rat counts at each dose) (control rats; Dose 0.5): 27.6667
Sheet 3h, Mean (sheet 3g count x dose, intake) (control rats; Dose 0.5): 13.8333
Sheet 3g, Mean (per-rat counts at each dose) (control rats; Dose 1): 15
Sheet 3h, Mean (sheet 3g count x dose, intake) (control rats; Dose 1): 15
EC50 ([12]; EC50 at a75HT3 L141G G175K Y210F Y217F, AVG, sheet 1e): 1.58 µM
EC50 ([12]; EC50 at a75HT3 L141G G175K Y210F Y217F, sheet 1e, single determinations): 1.8 µM and 1 µM and 2.64 µM and 0.81 µM and 1.25 µM and 0.84 µM and 2.8 µM
Response ([12]; conc 0.0137 uM, ED Fig. 2c): 0.067
Response ([12]; conc 0.0137174 uM, ED Fig. 2b): 0.067
Response ([12]; conc 0.123 uM, ED Fig. 2c): 0.063
Response ([12]; conc 0.123457 uM, ED Fig. 2b): 0.063
Max normalized Response ([12]; conc 0.137 uM): 0.07313
Response ([12]; conc 0.37 uM, ED Fig. 2c): 0.098
Response ([12]; conc 0.37037 uM, ED Fig. 2b): 0.098
Response ([12]; conc 0.457247 uM, ED Fig 3a): 0.103
Response ([12]; conc 1.11111 uM, ED Fig. 2b): 0.363
Response ([12]; conc 1.37174 uM, ED Fig 3a): 0.237
Response ([12]; conc 3.33333 uM, ED Fig. 2b): 0.825
Max normalized Response ([12]; conc 3.7 uM): 0.5001
Response ([12]; conc 10 uM, ED Fig. 2b): 1.02
Response ([12]; conc 10 uM, ED Fig. 2c): 1.023
Max normalized Response ([12]; conc 11.1 uM): 0.7653
Response ([12]; conc 12.3457 uM, ED Fig 3a): 1.106
Response ([12]; conc 30 uM, ED Fig. 2b): 0.86
Response ([12]; conc 30 uM, ED Fig. 2c): 0.864
Max normalized Response ([12]; conc 33.3 uM): 0.8419
Response ([12]; conc 37.037 uM, ED Fig 3a): 0.885
Max normalized Response ([12]; conc 100 uM): 0.9656
EC50 ([12]; half-maximum effective concentration (EC50), HEK293, fluorescence membrane potential assay): 1.5 ± 0.3 µM
peak brain cocaine concentration relative to EC50 for coca-5HT3 ([12]; intravenous dose in rats, Pan et al 1991): approximately 1.5 fold
